How the values were obtained:
P. falciparum 3D7 [1] = assay: Method III growth inhibition assay (HRP2-ELISA, 3 days), 3D7; format: cell-based, Plasmodium falciparum; conditions: Plasmodium falciparum, 3D7, 3D7, method III (HRP2 assay), drc package of R; read-out: IC50 P. falciparum 3D7 (method III)
[2] = system: MEP pathway and TCA cycle metabolites in P. falciparum 3D7; assay: LC-MS/MS profiling of MEP pathway, TCA cycle, glycolytic and pentose phosphate metabolites in P. falciparum; format: cell-based, Plasmodium falciparum; conditions: 12 h
P. falciparum 3D7-DXPS+ = assay: Growth inhibition of PfDXPS overexpressing parasites (3D7-DXPS+); format: cell-based; conditions: Plasmodium falciparum, 3D7, read-out: PfDXPS IC50
Text: The open reading frame (ORF) encoding 1-deoxy-D-xylulose-5-phosphate synthase (PfDXPS; PF3D7_1337200) was amplified from genomic DNA isolated from unsynchronized P. falciparum 3D7 cultures using the Platinum PCR SuperMix High Fidelity (Invitrogen). Forward and reverse primers contained restriction sites for KpnI and AvrII in sense and antisense orientation, respectively (oligonucleotides pfDXPS-Kpn1-S: […]; pfDXPSmyc-Avr2-AS: […] ). PCR products and the transfection vector pARL1a-hDHFR PfARG-GFP were digested with KpnI and AvrII, purified (Gel extraction Kit and PCR purification kit; Qiagen), and cloned into the transfection vector yielding the construct for overexpression pARL-DXS-strep. XL 10-Gold E. coli ultracompetent cells (Agilent Technologies) were transformed with the generated construct to amplify the plasmid and colonies checked using restriction analysis and sequencing of the plasmid. Bacterial clones carrying the overexpression construct and the empty pARL1a vector (MOCK plasmid) were amplified in overnight cultures, isolated (Plasmid Maxi Kit; QIAGEN), and subsequently used to transfect P. falciparum 3D7 ring-stage parasites, as already described.[59] Briefly, 120 μg of plasmid DNA was centrifuged and air-dried, and the pellet was resuspended in TE buffer and cytomix reagent and mixed with the P. falciparum culture. Parasites were transfected using electroporation and selected with WR 99210. The generation and characterization of the PfTPK overexpression cell line has been reported before.[60]
P. falciparum cultures were treated as described in method I. For target specification toward PfTPK and PfDXPS, compounds were tested in comparison against overexpressing cell lines and the respective MOCK line containing only the transfected vector backbone. Parasite viability/proliferation was determined.

P. falciparum 3D7 [3] = assay: Method II growth-inhibition assay (PicoGreen, 3 days), 3D7; format: cell-based; conditions: Plasmodium falciparum, 3D7, method II
Text: Fidock (Columbia University).

SMILES: Cc1nc(N)sc1-c1csc(Nc2ccc(C(F)(F)F)cc2)n1 [compound 1]
- IC50 (P. falciparum 3D7 [1]): 600 ± 200 nM
- DOXP, Mean of + 1 ([2]; 1 at 7.65 μM (5× IC50), UNT 1,163, P >0,99999): 1,163
- MEcDP, Mean of + 1 ([2]; 1 at 7.65 μM, UNT 11,24, P 0,720090): 10,20
- PEP, Mean of + 1 ([2]; 1 at 7.65 μM, UNT 11,98, P 0,005029): 5,297
- GC3P, Mean of + 1 ([2]; 1 at 7.65 μM, UNT 13,48, P 0,003896): 6,757
- 3PGA, Mean of + 1 ([2]; 1 at 7.65 μM, UNT 14,78, P 0,037010): 8,127
- G6P, Mean of + 1 ([2]; 1 at 7.65 μM, UNT 17,23, P 0,044056): 6,793
- MAL, Mean of + 1 ([2]; 1 at 7.65 μM, UNT 53,67, P 0,001940): 23,30
- 2PGA, Mean of + 1 ([2]; 1 at 7.65 μM, UNT 61,07, P 0,050194): 31,49
- CIT, Mean of + 1 ([2]; 1 at 7.65 μM, UNT 64,80, P 0,008553): 25,15
- CDP-ME, Mean of + 1 ([2]; 1 at 7.65 μM, UNT 0,06667, P 0,587914): 0,07667
- S7P, Mean of + 1 ([2]; 1 at 7.65 μM, UNT 90,64, P 0,340281): 54,93
- PYR, Mean of + 1 ([2]; 1 at 7.65 μM, UNT 102,5, P 0,030535): 28,19
- G1P/F6P, Mean of + 1 ([2]; 1 at 7.65 μM, UNT 103,0, P 0,112890): 57,13
- LAC, Mean of + 1 ([2]; 1 at 7.65 μM, UNT 104,2, P 0,388380): 80,23
- SUC, Mean of + 1 ([2]; 1 at 7.65 μM, UNT 118,0, P 0,002161): 60,23
- DMADP, Mean of + 1 ([2]; 1 at 7.65 μM, UNT 0,1667, P 0,032540): 0,1033
- HDMADP, Mean of + 1 ([2]; 1 at 7.65 μM, UNT 0,2200, P 0,306022): 0,1833
- MEP, Mean of + 1 ([2]; 1 at 7.65 μM, UNT 0,4233, P 0,070645): 0,3100
- FUM, Mean of + 1 ([2]; 1 at 7.65 μM, UNT 1668, P 0,003295): 727,7
- ACO, Mean of + 1 ([2]; 1 at 7.65 μM, UNT 1,877, P 0,144422): 1,140
- RU5P/RUP, Mean of + 1 ([2]; 1 at 7.65 μM, UNT 5,757, P 0,038874): 2,520
- IC50 (P. falciparum 3D7-DXPS+): 2080 nM
- IC50 (P. falciparum 3D7 [3]; 95% CI in brackets, read-out: IC50 B): 1600 nM
- IC50 (P. falciparum 3D7 [3]; read-out: IC50 3D7-II): 1700 ± 600 nM

Reference: PMC10928712, “High Target Homology Does Not Guarantee Inhibition: Aminothiazoles Emerge as Inhibitors of Plasmodium falciparum” (ACS Infectious Diseases, 2024)
